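Here, GI50 denotes the concentration required for 50% inhibition of growth. The concentration for full growth arrest is given as TGI.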
How the values were obtained:
Assay in all cases: inhibition of tumour cell growth, NCI panel, 384-well format; in the data active = GI50 below about 0.43 µM; inactive = the rest
786-0 renal = system: 786-0 renal
A498 renal = system: A498 renal
A549 NSCLC = system: A549 NSCLC
ACHN renal = system: ACHN renal
BT-549 breast = system: BT-549 breast
CAKI-1 renal = system: CAKI-1 renal
CCRF-CEM leukemia = system: CCRF-CEM leukemia
COLO 205 colon = system: COLO 205 colon
DU-145 prostate = system: DU-145 prostate
EKVX NSCLC = system: EKVX NSCLC
HCC-2998 colon = system: HCC-2998 colon
HCT-116 colon = system: HCT-116 colon
HCT-15 colon = system: HCT-15 colon
HL-60(TB) leukemia = system: HL-60(TB) leukemia
HOP-62 NSCLC = system: HOP-62 NSCLC
HOP-92 NSCLC = system: HOP-92 NSCLC
HS 578T breast = system: HS 578T breast
HT29 colon = system: HT29 colon
IGROV1 ovarian = system: IGROV1 ovarian
K-562 leukemia = system: K-562 leukemia
KM12 colon = system: KM12 colon
LOX IMVI melanoma = system: LOX IMVI melanoma
M14 melanoma = system: M14 melanoma
MALME-3M melanoma = system: MALME-3M melanoma
MCF7 breast = system: MCF7 breast
MDA-MB-231 breast = system: MDA-MB-231 breast
MDA-MB-435 melanoma = system: MDA-MB-435 melanoma
MDA-MB-468 breast = system: MDA-MB-468 breast
MOLT-4 leukemia = system: MOLT-4 leukemia
NCI-H226 lung = system: NCI-H226 lung
NCI-H23 lung = system: NCI-H23 lung
NCI-H322M lung = system: NCI-H322M lung
NCI-H460 NSCLC = system: NCI-H460 NSCLC
NCI-H522 lung = system: NCI-H522 lung
NCI/ADR-RES ovarian = system: NCI/ADR-RES ovarian
OVCAR-3 ovarian = system: OVCAR-3 ovarian
OVCAR-4 ovarian = system: OVCAR-4 ovarian
OVCAR-5 ovarian = system: OVCAR-5 ovarian
OVCAR-8 ovarian = system: OVCAR-8 ovarian
PC-3 prostate = system: PC-3 prostate
RXF 393 renal = system: RXF 393 renal
SF-268 CNS = system: SF-268 CNS
SF-295 CNS = system: SF-295 CNS
SF-539 CNS = system: SF-539 CNS
SK-MEL-2 melanoma = system: SK-MEL-2 melanoma
SK-MEL-28 melanoma = system: SK-MEL-28 melanoma
SK-MEL-5 melanoma = system: SK-MEL-5 melanoma
SK-OV-3 ovarian = system: SK-OV-3 ovarian
SN12C renal = system: SN12C renal
SNB-19 CNS = system: SNB-19 CNS
SNB-75 CNS = system: SNB-75 CNS
SR leukemia = system: SR leukemia
SW-620 colon = system: SW-620 colon
T-47D breast = system: T-47D breast
TK-10 renal = system: TK-10 renal
U251 glioblastoma = system: U251 glioblastoma
UACC-257 melanoma = system: UACC-257 melanoma
UACC-62 melanoma = system: UACC-62 melanoma
UO-31 renal = system: UO-31 renal

Cc1nc(N2CCC3(CC2)CO[C@@H](C)[C@H]3N)c(CO)nc1Sc1ccnc(N)c1Cl
95 µM: TGI (HCC-2998 colon)
54.2 µM: TGI (MALME-3M melanoma)
active: GI50 (CAKI-1 renal) 0.414 µM | GI50 (HOP-92 NSCLC) 0.115 µM | GI50 (K-562 leukemia) 0.0619 µM | GI50 (KM12 colon) 0.321 µM | GI50 (MDA-MB-468 breast) 0.145 µM | GI50 (NCI-H23 lung) 0.0838 µM | GI50 (NCI-H322M lung) 0.166 µM | GI50 (NCI-H522 lung) 0.044 µM
18.5 µM: TGI (NCI-H522 lung)
inactive: GI50 ([…]-0 renal) 29.3 µM | GI50 (A498 renal) 1.08 µM | GI50 (A549 NSCLC) 97 µM | GI50 (ACHN renal) 2.03 µM | GI50 (BT-549 breast) 17 µM | GI50 (CCRF-CEM leukemia) 24.5 µM | GI50 (COLO 205 colon) 41.8 µM | GI50 (DU-145 prostate) 97.5 µM | GI50 (EKVX NSCLC) 3.13 µM | GI50 (HCC-2998 colon) 35.5 µM | GI50 (HCT-116 colon) 37.1 µM | GI50 (HCT-15 colon) 69.3 µM | GI50 (HL-60(TB) leukemia) 15.8 µM | GI50 (HOP-62 NSCLC) 54 µM | GI50 (HS 578T breast) 39.4 µM | GI50 (HT29 colon) 27.5 µM | GI50 (IGROV1 ovarian) 0.728 µM | GI50 (LOX IMVI melanoma) 35.5 µM | GI50 (M14 melanoma) 21.3 µM | GI50 (MALME-3M melanoma) 24.2 µM | GI50 (MCF7 breast) 35.1 µM | GI50 (MDA-MB-231 breast) > 100 µM | GI50 (MDA-MB-435 melanoma) > 100 µM | GI50 (MOLT-4 leukemia) 27 µM | GI50 (NCI-H226 lung) 0.714 µM | GI50 (NCI-H460 NSCLC) 41.8 µM | GI50 (NCI/ADR-RES ovarian) 17.7 µM | GI50 (OVCAR-3 ovarian) 35.8 µM | GI50 (OVCAR-4 ovarian) 46.6 µM | GI50 (OVCAR-5 ovarian) 92.7 µM | GI50 (OVCAR-8 ovarian) 17.2 µM | GI50 (PC-3 prostate) 54.4 µM | GI50 (RXF 393 renal) 12.5 µM | GI50 (SF-268 CNS) 91.6 µM | GI50 (SF-295 CNS) 79.8 µM | GI50 (SF-539 CNS) 22.1 µM | GI50 (SK-MEL-2 melanoma) 34.7 µM | GI50 (SK-MEL-28 melanoma) 40.1 µM | GI50 (SK-MEL-5 melanoma) 16 µM | GI50 (SK-OV-3 ovarian) 13 µM | GI50 (SN12C renal) 8.42 µM | GI50 (SNB-19 CNS) 42.1 µM | GI50 (SNB-75 CNS) 13.4 µM | GI50 (SR leukemia) 9.08 µM | GI50 (SW-620 colon) 54.6 µM | GI50 (T-47D breast) 17.5 µM | GI50 (TK-10 renal) 0.819 µM | GI50 (U251 glioblastoma) 15.6 µM | GI50 (UACC-257 melanoma) 19.3 µM | GI50 (UACC-62 melanoma) 31.4 µM | GI50 (UO-31 renal) 11 µM
92.3 µM: TGI (EKVX NSCLC)
29.5 µM: TGI (HL-60(TB) leukemia)
12.4 µM: TGI (HOP-92 NSCLC)
78.1 µM: TGI (SK-MEL-2 melanoma)
71.8 µM: TGI (HT29 colon)
21.5 µM: TGI (SR leukemia)
20.6 µM: TGI (NCI-H23 lung)
15.7 µM: TGI (K-562 leukemia)
31.3 µM: TGI (SK-MEL-5 melanoma)
> 100 µM: TGI (786-0 renal) | TGI (A498 renal) | TGI (A549 NSCLC) | TGI (ACHN renal) | TGI (BT-549 breast) | TGI (CAKI-1 renal) | TGI (COLO 205 colon) | TGI (DU-145 prostate) | TGI (HCT-116 colon) | TGI (HCT-15 colon) | TGI (HOP-62 NSCLC) | TGI (HS 578T breast) | TGI (IGROV1 ovarian) | TGI (KM12 colon) | TGI (LOX IMVI melanoma) | TGI (MCF7 breast) | TGI (MDA-MB-231 breast) | TGI (MDA-MB-435 melanoma) | TGI (MOLT-4 leukemia) | TGI (NCI-H226 lung) | TGI (NCI-H322M lung) | TGI (NCI-H460 NSCLC) | TGI (NCI/ADR-RES ovarian) | TGI (OVCAR-3 ovarian) | TGI (OVCAR-4 ovarian) | TGI (OVCAR-5 ovarian) | TGI (PC-3 prostate) | TGI (SF-268 CNS) | TGI (SF-295 CNS) | TGI (SF-539 CNS) | TGI (SK-MEL-28 melanoma) | TGI (SK-OV-3 ovarian) | TGI (SN12C renal) | TGI (SNB-19 CNS) | TGI (SW-620 colon) | TGI (TK-10 renal) | TGI (U251 glioblastoma) | TGI (UACC-62 melanoma) | TGI (UO-31 renal)
60.2 µM: TGI (CCRF-CEM leukemia)
38.1 µM: TGI (UACC-257 melanoma)
41.5 µM: TGI (RXF 393 renal)
82.2 µM: TGI (T-47D breast)
1.39 µM: TGI (MDA-MB-468 breast)
50.5 µM: TGI (OVCAR-8 ovarian)
94.4 µM: TGI (SNB-75 CNS)
42.6 µM: TGI (M14 melanoma)
